The values below come from paper PMC6934184, “Selective DNA-PKcs inhibition extends the therapeutic index of localized radiotherapy and chemotherapy” (The Journal of Clinical Investigation, 2019).

For the experiment, the target named is T1, ROCK2 (Homo sapiens, UniProt O75116).
T1 construct: purchased Thermo Fisher Scientific (Life Technologies) SelectScreen
The experiment can be described thus: SelectScreen Z'LYTE. It is filed as biochemical. Put shortly: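 SelectScreen broad panel; activity (Z'LYTE, Adapta) plus binding formats. ATP: Km app for CSF1R Z'LYTE; 10 for CAMK1 Adapta. Readout = % per kinase.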

Molecules are shown by their SMILES.

T1 sequence (O75116 whole entry): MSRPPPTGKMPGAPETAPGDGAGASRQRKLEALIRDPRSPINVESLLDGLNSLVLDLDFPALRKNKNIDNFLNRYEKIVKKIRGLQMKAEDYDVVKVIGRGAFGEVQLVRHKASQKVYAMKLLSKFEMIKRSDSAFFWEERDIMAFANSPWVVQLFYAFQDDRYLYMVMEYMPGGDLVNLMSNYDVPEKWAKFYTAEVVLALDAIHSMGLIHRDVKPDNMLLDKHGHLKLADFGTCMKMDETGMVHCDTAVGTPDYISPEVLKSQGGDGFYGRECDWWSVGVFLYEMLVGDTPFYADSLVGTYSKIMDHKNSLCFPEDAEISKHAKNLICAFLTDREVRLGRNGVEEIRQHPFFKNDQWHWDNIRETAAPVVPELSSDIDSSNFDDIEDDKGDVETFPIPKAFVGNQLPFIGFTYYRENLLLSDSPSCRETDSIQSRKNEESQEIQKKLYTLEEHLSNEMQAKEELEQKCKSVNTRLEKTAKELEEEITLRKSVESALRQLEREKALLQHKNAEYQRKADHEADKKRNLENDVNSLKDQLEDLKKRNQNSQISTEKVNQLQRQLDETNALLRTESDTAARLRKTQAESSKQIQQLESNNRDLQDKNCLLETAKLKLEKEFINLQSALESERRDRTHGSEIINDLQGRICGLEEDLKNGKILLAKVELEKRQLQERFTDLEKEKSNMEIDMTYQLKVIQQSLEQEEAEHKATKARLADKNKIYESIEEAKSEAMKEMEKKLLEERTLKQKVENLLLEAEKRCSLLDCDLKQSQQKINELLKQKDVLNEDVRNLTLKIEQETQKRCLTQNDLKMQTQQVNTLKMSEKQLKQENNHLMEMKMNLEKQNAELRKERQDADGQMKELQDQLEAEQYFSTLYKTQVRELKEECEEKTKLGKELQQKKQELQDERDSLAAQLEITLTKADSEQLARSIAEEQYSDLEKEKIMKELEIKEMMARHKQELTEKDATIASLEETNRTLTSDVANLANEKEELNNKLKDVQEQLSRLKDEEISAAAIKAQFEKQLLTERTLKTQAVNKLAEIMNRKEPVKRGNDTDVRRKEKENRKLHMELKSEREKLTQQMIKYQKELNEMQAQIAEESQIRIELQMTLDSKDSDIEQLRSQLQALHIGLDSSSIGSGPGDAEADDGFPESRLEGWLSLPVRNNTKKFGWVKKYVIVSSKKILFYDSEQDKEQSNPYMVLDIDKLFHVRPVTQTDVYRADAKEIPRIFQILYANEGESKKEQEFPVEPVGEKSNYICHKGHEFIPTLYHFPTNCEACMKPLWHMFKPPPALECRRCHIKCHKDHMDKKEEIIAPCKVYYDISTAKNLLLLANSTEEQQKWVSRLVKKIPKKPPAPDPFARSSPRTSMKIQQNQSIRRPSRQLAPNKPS

Turning to `CN(C(=O)CN1CCOCC1)c1ccc2sc3c(-c4cccc5c(=O)cc(N6CC7CCC(C6)O7)oc45)cccc3c2c1` [NU5455], the inhibition at 1 µM is -4.1%.

By inhibition is commonly meant the relative decrease from the control value, in per cent.
